From US4537956A, “Antibiotics X-14889 A, C and D” (Hoffmann-La Roche Inc., priority 1983, dated 1985)
In brackets after ≈: the same amount, converted by molar mass.

Tests used:
Assay in all cases: MIC in vitro, agar diffusion well method
Type in all cases: cell-based
[1] = system: Bacillus subtilis ATCC 558; conditions: Bacillus subtilis ATCC 558, agar diffusion well method
From the text: (§1) Minimal inhibitory concentration (mcg/ml)
(§2) *As determined by an agar diffusion well method.

[2] = system: Saccharomyces cerevisiae ATCC 4226; conditions: Saccharomyces cerevisiae ATCC 4226, agar diffusion well method
From the text: as §1, §2

[3] = system: Penicillium digitatum ATCC 26821; conditions: Penicillium digitatum ATCC 26821, agar diffusion well method
From the text: as §1, §2

[4] = system: Bacillus sp. TA ATCC 27860; conditions: Bacillus sp. TA ATCC 27860, agar diffusion well method
From the text: as §1, §2

[5] = system: Streptococcus faecium ATCC 8043; conditions: Streptococcus faecium ATCC 8043, agar diffusion well method
From the text: as §1, §2

[6] = system: Bacillus sp. E ATCC 27359; conditions: Bacillus sp. E ATCC 27359, agar diffusion well method
From the text: as §1, §2

[7] = system: Paecilomyces varioti ATCC 28820; conditions: Paecilomyces varioti ATCC 28820, agar diffusion well method
From the text: as §1, §2

[8] = system: Candida albicans NRRL 477; conditions: Candida albicans NRRL 477, agar diffusion well method
From the text: as §1, §2

[9] = system: Streptomyces cellulosae ATCC 3313; conditions: Streptomyces cellulosae ATCC 3313, agar diffusion well method
From the text: as §1, §2

[10] = system: Staphylococcus aureus ATCC 6538P
From the text: as §1, §2

[11] = system: Mycobacterium phlei ATCC 355; conditions: Mycobacterium phlei ATCC 355, agar diffusion well method
From the text: as §1, §2

[12] = system: Bacillus megaterium ATCC 8011; conditions: Bacillus megaterium ATCC 8011, agar diffusion well method
From the text: as §1, §2

## CC[C@H](C(=O)[C@@H](C)[C@@H](O)[C@H](C)[C@H]1O[C@@](O)(CC)[C@@H](C)C[C@@H]1C)[C@H]1O[C@](C)(C23OC(C)C(CC)(CC2C)O3)C[C@@H]1C (stereo partly drawn) [Antibiotic X-14889D]
[1]
  Minimal inhibitory concentration: 1000 µg/mL (≈ 1760 µM)
[2]
  Minimal inhibitory concentration: 1000 µg/mL (≈ 1760 µM)
[3]
  Minimal inhibitory concentration: 1000 µg/mL (≈ 1760 µM)
[4]
  Minimal inhibitory concentration: 1000 µg/mL (≈ 1760 µM)
[5]
  Minimal inhibitory concentration: 125 µg/mL (≈ 221 µM)
[6]
  Minimal inhibitory concentration: 7.9 µg/mL (≈ 13.9 µM)
[7]
  Minimal inhibitory concentration: 1000 µg/mL (≈ 1760 µM)
[8]
  Minimal inhibitory concentration: 1000 µg/mL (≈ 1760 µM)
[9]
  Minimal inhibitory concentration: 1000 µg/mL (≈ 1760 µM)
[10]
  Minimal inhibitory concentration: 125 µg/mL (≈ 221 µM)
[11]
  Minimal inhibitory concentration: 1000 µg/mL (≈ 1760 µM)
[12]
  Minimal inhibitory concentration: 1000 µg/mL (≈ 1760 µM)
